According to publication PMC12838644, “Dihydrotanshinone as a Natural Product-Based CYP17A1 Lyase Inhibitor for Hyperandrogenic Disorders” (Biomolecules, 2026):
Like-named read-outs stand apart in the source and are kept apart here.

Key:
[1] = biological target: T1, CYP17A1 17α-hydroxylase (Homo sapiens, UniProt P05093); test: CYP17A1 17α-hydroxylase activity assay (progesterone to 17OH-progesterone, reconstituted POR/CYP17A1); format: biochemical; settings: for inhibition at 10 µM: read-out: % Inhibition CYP17A1-OH
T1 sequence (P05093 1-508): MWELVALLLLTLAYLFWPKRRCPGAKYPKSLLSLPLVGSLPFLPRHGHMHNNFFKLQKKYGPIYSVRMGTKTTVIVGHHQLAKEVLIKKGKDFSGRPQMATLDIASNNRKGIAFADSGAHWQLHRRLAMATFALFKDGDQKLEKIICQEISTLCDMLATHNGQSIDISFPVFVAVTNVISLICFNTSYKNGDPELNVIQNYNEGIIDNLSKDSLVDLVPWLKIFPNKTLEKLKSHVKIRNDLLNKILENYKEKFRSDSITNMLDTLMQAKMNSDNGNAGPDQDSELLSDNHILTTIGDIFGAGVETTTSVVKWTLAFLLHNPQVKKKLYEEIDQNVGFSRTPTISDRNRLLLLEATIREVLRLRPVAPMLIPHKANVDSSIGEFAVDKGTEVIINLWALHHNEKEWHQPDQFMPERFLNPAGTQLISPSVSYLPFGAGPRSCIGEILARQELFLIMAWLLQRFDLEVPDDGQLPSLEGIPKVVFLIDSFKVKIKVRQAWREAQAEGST
Experimental: (§1) Assay of CYP17A1 17α-hydroxylase and 17,20-lyase activities were performed as described previously. The 17α-hydroxylase activity was measured by conversion of progesterone to 17OH-progesterone, while production of DHEA from 17OH-pregnenolone was used for monitoring the 17,20-lyase activity of CYP17A1. In vitro CYP17A1 assays were performed using a liposome system consisting of human p450 oxidoreductase (POR) and CYP17A1 at a ratio of 3:4 (POR: CYP17A1). The final assay mixture consisted of proteins (37.5 nmol POR: 50 nmol CYP17A1), 10 mM MgCl2, 6 mM potassium acetate (KOAc), 0.05 mg/mL DLPC,1 mM reduced Glutathione in 50 mM HEPES-NaOH buffer (pH 7.4), and the reaction volume was 200 μL. The drugs were added to the final mixture and incubated for 1h before the catalytic reaction was initiated by the addition of NADPH to 1 mM final concentration. Radiolabeled [^14C]-progesterone (10,000 cpm in 1 µM) was used as a tracer in each reaction. Steroids were extracted and separated by thin-layer chromatography (TLC) on silica gel (SIL G/UV254) TLC plates (Macherey-Nagel, Oensingen, Switzerland) as previously described.

[2] = test system: HEK-293T cells; test: alamarBlue cytotoxicity assay, HEK-293T; format: cell-based; settings: Homo sapiens, read-out: HEK-293T (IC50)
Experimental: (§2) RWPE-1 cells (ATCC: CRL-36O7) were cultured in keratinocyte serum-free media (K-SFM) supplemented with 0.05 mg/mL bovine pituitary extract and 5 ng/mL epidermal growth factor, and 1% penicillin (100 U/mL; Thermo Fisher Scientific, Waltham, MA, USA), and streptomycin (100 μg/mL; GIBCO). […] Passage numbers remained below 30 as per standard procedures. All cell lines were validated and characterized before use to ensure their authenticity and reliability. Routine mycoplasma testing was conducted to confirm that the cells were free from contamination. Additionally, key functional and morphological characteristics were assessed to verify their alignment with previously reported profiles.
(§3) The alamarBlue® assay (Thermo Fisher Scientific, Waltham, MA USA) was conducted as previously described. RWPE-1 cells, HEK-293 cells, and NCI-H295R cells were plated in 96-well plates at 10,000 cells per well and incubated overnight at 37 °C with 5% CO2. […] Cells were incubated for an additional 24 h. Cell viability was measured using the alamarBlue® assay. Post-incubation, 0.05 mg/mL alamarBlue® solution in phosphate-buffered saline (PBS) was added to each well. The plates were incubated in the dark at 37 °C with 5% CO2 for 4 h, and fluorescence was measured at an excitation wavelength of 540 nm and an emission wavelength of 590 nm. Cell viability was calculated relative to the control sample treated with DMSO. All experiments were conducted in triplicate.

[3] = test system: NCI-H295R cells; test: alamarBlue cytotoxicity assay, NCI-H295R; format: cell-based; settings: Homo sapiens, read-out: NCI-H295R (IC50)
Experimental: as §2, §3

[4] = biological target: T2, CYP17A1 17,20-lyase (Homo sapiens, UniProt P05093); test: CYP17A1 17,20-lyase activity assay (DHEA from 17OH-pregnenolone, POR, CYP17A1 and cytochrome b5); format: biochemical; settings: for inhibition at 10 µM: read-out: % Inhibition CYP17A1-Lyase; for Residual 17,20-lyase activity: % of DMSO control; for Lyase/CYP21A2 Selectivity Index: (% Inhibition Lyase)/(% Inhibition CYP21A2) at 10 µM (SM 10 µg/mL); for Lyase/OH Selectivity Index: (% Inhibition Lyase)/(% Inhibition OH) at 10 µM (SM 10 µg/mL)
T2 sequence (P05093 1-508): T1 sequence (P05093 1-508)
Experimental: as §1, with “The final assay mixture consisted of proteins (37.5 nmol POR: 50 nmol CYP17A1), 10 mM MgCl2, 6 mM potassium acetate (KOAc), 0.05 mg/mL DLPC,1 mM reduced Glutathione in 50 mM HEPES-NaOH buffer (pH 7.4), and the reaction volume was 200 μL.” left out
In vitro CYP17A1 17,20-lyase activity assays were performed using POR, CYP17A1 and cytochrome b5 as described previously. The final assay mixture consisted of proteins, 10 mM MgCl2, 6 mM KOAc, 0.05 mg/mL DLPC, 1 mM reduced glutathione in 50 mM HEPES-NaOH buffer (pH 7.4), and the reaction volume was 200 μL. The drugs were added to the final mixture and incubated for 1h before the catalytic reaction was initiated by the addition of NADPH to 1 mM final concentration. Radiolabeled [^3H]-17OH-pregnenolone (50,000 cpm in 1 µM) was added as a tracer and the enzyme activity was measured by using the scintillation counter in the water release assay.

[5] = test system: RWPE-1 cells; test: alamarBlue cytotoxicity assay, RWPE-1; format: cell-based; settings: Homo sapiens, read-out: RWPE-1 (IC50)
Experimental: as §2, §3

[6] = 10 µM (SM extract 10 µg/mL), calculated as 100% − % residual activity
[7] = cytotoxicity, alamarBlue, 24 h incubation, mean ± SD, three experiments
[8] = RWPE-1, cytotoxicity, alamarBlue, 24 h incubation, mean ± SD, three experiments

Compound | inhibition at 10 µM [1, 6] [%] | IC50 [2, 7] [nM] | IC50 [3, 7] [nM] | inhibition at 10 µM [4, 6] [%] | Residual 17,20-lyase activity ([4]; 10 µM (SM extract 10 µg/mL)) [%] | Lyase/CYP21A2 Selectivity Index [4] | Lyase/OH Selectivity Index [4] | IC50 [5, 8] [nM] | Residual 17α-hydroxylase activity ([1]; % of DMSO control, 10 µM (SM extract 10 µg/mL)) [%] | inhibition at 10 µM [1] [%] | IC50 ([2]; 24 h) [nM] | IC50 ([3]; 24 h) [nM] | inhibition at 10 µM [4] [%] | IC50 ([5]; RWPE-1, 24 h) [nM]
Cc1coc2c1C(=O)C(=O)c1c-2ccc2c(C)cccc12 [TAI, tanshinone I] | < 1 | 1080 ± 260 | 1130 ± 630 | 28.2 | 72 | High ^c | High ^c | 2270 ± 3250 |  |  |  |  |  | 
Cc1coc2c1C(=O)C(=O)c1c-2ccc2c1CCCC2(C)C [TAII, tanshinone IIA] | < 1 | 2260 ± 1920 | 1200 ± 3440 | 43 | 57 | High ^c | High ^c | 4500 ± 11800 |  |  |  |  |  | 
Cc1cccc2c3c(ccc12)C1=C(C(=O)C3=O)[C@@H](C)CO1 [DT, dihydrotanshinone I] |  |  |  |  | 43 | 3.80 |  |  | > 93 | 6.5 | 1310 ± 470 | 950 ± 480 | 56.6 | 1400 ± 420
